Experimental data reported in US11414379B2, “SPAK kinase inhibitors as neuroprotective agents” (United States Government as represented by the Department …, priority 2018, dated 2022).
“Also recorded” adds a separate entry of the source.

Experiments:
all four WNK kinases = details: cited from earlier work
[1] = system: mouse model of ischemic stroke; experiment: Infarct volume and hemispheric swelling after transient MCAO; type: in vivo; details: 2.5 mg/kg; 24 hr reperfusion
From the text: Under an operating microscope, the left common carotid artery was exposed through a midline incision. […] The ECA was dissected further distally and permanently ligated. The internal carotid artery (ICA) was isolated and carefully separated from the adjacent vagus nerve. A 12 mm length of silicon-coated nylon filament (size 6-0, native diameter 0.11 mm; diameter with coating 0.21+/−0.02 mm; coating length 5-6 mm; Doccol Corporation, Sharon, Mass.) was introduced into the ECA lumen through a puncture. The silk suture around the ECA stump was tightened around the intraluminal nylon suture to prevent bleeding. The nylon suture was then gently advanced from the ECA to the ICA lumen until mild resistance was felt (˜9 mm). For reperfusion, the suture was withdrawn 50 min after MCAO to restore blood flow. Body temperature was maintained for the duration of the experiment between 36.5° C.-37° C. with a small animal heating pad (Kent Scientific).
At 24 hours reperfusion, mice were anesthetized with 5% isoflurane and then decapitated. Coronal brain tissue slices (2 mm) were stained for 20 minutes at 37° C. with 1% 2,3,5-triphenyltetrazolium chloride monohydrate (TTC; Sigma, St Louis, Mo.) in PBS solution. […] The extent of hemispheric swelling was calculated using the following equation: swelling (% contralateral side)=[(volume of ipsilateral hemisphere−volume of contralateral hemisphere)/volume of contralateral hemisphere]×100 (Bhuiyan et al. (2017) Journal of cerebral blood flow and metabolism: official journal of the International Society of Cerebral Blood Flow and Metabolism 37: 2780-2794).
Referring to FIG. 11A, an experimental design of ischemic stroke study is shown. Vehicle or ZT-1a is administered at 3 hrs and 8 hrs post-MCAO.
Referring to FIG. 11B, representative images and quantification of infarct volume and hemispheric swelling in TTC-stained coronal sections of mouse brains 24 hrs post-MCAO are shown. Vehicle (DMSO, 2 ml/kg) or ZT-1a (2.5 or 5.0 mg/kg) were administered with an initial half dose at 3 hrs and the second half dose at 8 hr reperfusion via intra-peritoneal injection (i.p.). Data are mean±SD, n=6-12 per group (male). * p<0.05.

[2] = system: normotensive and hypertensive rodent models; details: oral administration of 1-10 mg/kg; cited from earlier work
mice = experiment: Adverse effects of WNK463 administered to mice; type: in vivo, mouse; details: 2.5 mg/kg dose

CC(C)(C)NC(=O)c1cncn1C1CCN(c2ccc(-c3nnc(C(F)(F)F)o3)cn2)CC1 [WNK463]
inhibition of WNK kinases in vitro (all four WNK kinases): nanomolar range
effect on infarct volume and hemispheric swelling [1]: reduced neither infarct volume nor hemispheric swelling; also recorded: no neuroprotective effects
effect on blood pressure [2]: reduced blood pressure
adverse effects (mice): ataxia and breathing difficulties
